In PMC4523931, “Modulation of Aβ42 in vivo by γ-secretase modulator in primates and humans” (Alzheimer's Research & Therapy, 2015):

Assays:
γ-secretase [1] = target: T1, γ-secretase (Macaca fascicularis, UniProt Q8HXW5); test: Aβ levels in CSF and plasma of conscious cynomolgus monkeys after a single dose; type: in vivo, cynomolgus monkeys (Macaca fascicularis); conditions: monkey CSF, 30 mg/kg oral
T1 construct: γ-secretase complex can be modulated in primates; from tissue; host or cells: living cynomolgus monkeys; Aβ read out in CSF and plasma

γ-secretase [2] = target: T1, γ-secretase; test: as above; type: in vivo, cynomolgus monkeys (Macaca fascicularis)
Method: The effects of drugs on CSF and plasma Aβ ratios in monkeys and plasma Aβ ratios in humans were analyzed by a two-way analysis of variance with a post hoc Bonferroni posttest (GraphPad Prism, La Jolla, CA, USA).
Aβ42, Aβ38 and total Aβ levels in CSF samples were measured. During the observation period, there was variation in Aβ levels in untreated animals (Fig. 2a–c) without a clear diurnal pattern, consistent with the reports from catheter studies in humans. Animals were then treated with drugs in subsequent weeks sequentially. Between each treatment, all animals were rested for 1 week to allow drug washout. […] In light of the CSF results, the effects of GSM-1 were mirrored in plasma. […] This was evident as early as 2 h following drug administration and plateaued starting at 4 h. GSM-1 reduced the ratio of Aβ42/Aβ40 up to 40 % at 6 h after dosing.
Cerebrospinal fluid (CSF) and plasma samples were collected at indicated time points and amyloid beta-peptide (Aβ) levels were measured. Levels of total Aβ (a), Aβ42 (b) and Aβ38 (c) were compared in CSF samples. […] The levels and ratios were normalized to baseline (time 0 or before drug dosing) and shown as percentages of baseline. Seven monkeys were used in the no-treatment group. […] Results are presented as mean ± SEM; *p < 0.05, **p < 0.001. GSM gamma-secretase modulator

γ-secretase [3] = test: GSM activity in vitro: Aβ42 and total Aβ ELISA of conditioned media of CHO cells expressing APP-WT or APP-V717F; type: cell-based, Chinese hamster; conditions: for ED50 (in vitro GSM activity): Fig. 1
Source text: Conditioned media were collected and Aβ42 and total Aβ levels were quantified by ELISA analyses. […] All experiments were repeated at least twice. Results are presented as mean ± range. GSM gamma-secretase modulator

γ-secretase [4] = test system: γ-secretase; design: method as in PMID 17962197; conditions: APP transgenic mice, cited from earlier work
[5] = mild to moderate AD, 400 mg twice daily, 1 year; cited from earlier work
γ-secretase [6] = test system: γ-secretase; design: method as in PMID 11700559, PMID 12897211; conditions: Tg2576 mice, 50 mg/kg for 3 days; cited from earlier work
clinical = conditions: human
[7] = monkey, 100 mg/kg oral, first sampled time point, all but one animal
[8] = Plasma drug concentration in mice treated with ibuprofen for 3 days (literature); type: in vivo; conditions: Tg2576 (APP transgenic line), mouse, 50 mg/kg daily for 3 days, from 43 μM and ~5.5 % unbound, read-out: estimated unbound concentration in plasma
in vivo = conditions: female, cynomolgus monkey, po, 100 mg/kg
[9] = Adverse events in the human study; conditions: healthy humans, 800 mg IV single dose or placebo
[10] = design: method as in PMID 12897211; conditions: mice, 50 mg/kg daily for 3 days, 2 h after the last dose; cited from earlier work
[11] = design: method as in PMID 17650315, PMID 20009055; conditions: late-phase human clinical trial; cited from earlier work

Structure (SMILES): CC(C)CC[C@H](c1ccc(Cl)cc1)N1CC[C@@H](CC(=O)O)C[C@H]1c1ccc(C(F)(F)F)cc1 [GSM-1]
- CSF Aβ38 level (mean ± SD) (γ-secretase [1]; 8 h postdosing, baseline 1033.3 ± 300.0): 1954.8 ± 698.6 pg/mL
- CSF Aβ42 level (mean ± SD) (γ-secretase [1]; 12 h postdosing, baseline 267.1 ± 60.0): 183.5 ± 96.1 pg/mL
- time of maximum reduction in CSF (γ-secretase [2]; monkey CSF, 30 mg/kg oral): 8 to 12 h
- effect on CSF total Aβ levels (γ-secretase [2]; monkey CSF, 30 mg/kg oral single dose): did not change
- maximal increase in CSF Aβ38 levels (γ-secretase [2]; monkey CSF, 30 mg/kg oral single dose, 8 h postdosing): ~ 90%
- maximal reduction in CSF Aβ42 levels (γ-secretase [2]; monkey CSF, 30 mg/kg oral single dose, 12 h postdosing): ~ 32%
- maximal increase of the ratio of Aβ38 to total Aβ in CSF (γ-secretase [2]; monkey CSF, 30 mg/kg oral, after 8 h, p < 0.05): 70%
- ratio of Aβ42 to total Aβ in CSF, relative to baseline (γ-secretase [2]; monkey CSF, single dose 30 mg/kg, baseline to postdosing): 65%
- reduction of the ratio of Aβ42/Aβ40 in plasma (γ-secretase [2]; monkey plasma, 30 mg/kg oral, 6 h after dosing): up to 40%
- time at which the decrease of plasma Aβ42/Aβ40 ratio was first evident (γ-secretase [2]; monkey plasma, 30 mg/kg oral, plateaued starting at 4 h): 2 h
- ratio of Aβ42 to Aβ40 in plasma, relative to baseline (γ-secretase [2]; monkey plasma, single dose 30 mg/kg, baseline to postdosing): 60%
- effect on ratio of Aβ42/Aβ40 in plasma (γ-secretase [2]; monkey plasma, single dose, Fig. 2f): markedly decreased
- effect on ratio of Aβ42 to total Aβ (γ-secretase [3]; CHO APP-WT or APP-V717F, 24 h, dose-dependent, p < 0.001): significantly reduced
- concentration giving 50 % reduction of the ratio of Aβ42 to total Aβ (γ-secretase [3]; CHO cells expressing APP-WT or APP-V717F, 24 h incubation, ELISA): 0.2 µM
- ED50 (in vitro GSM activity) (γ-secretase [3]): approximately 200 nM
- lowering of brain Aβ42 (γ-secretase [4]; single dose 3 mg/kg): 25%
- reduction of brain Aβ42 (γ-secretase [4]; single dose 30 mg/kg): 70%
- effect on Aβ38 levels (γ-secretase [4]; single dose): concomitantly increased

Structure (SMILES): CC(C)Cc1ccc(C(C)C(=O)O)cc1 (centres unmarked) [ibuprofen]
- clinical benefit [5]: no benefit
- effect on Aβ40 levels (reduced or not) (γ-secretase [6]): not
- effect on Aβ42 levels (γ-secretase [6]): significantly reduced
- AUC(0-t) (clinical; both, in vivo, iv, 800 mg): 831 ± 156 µM·h
- time of return of plasma levels to baseline (clinical; 800 mg IV): ≤ 8 h
- time of highest plasma levels (clinical; 800 mg IV, first time sampled): 1 h
- time of highest concentrations in plasma and CSF [7]: 2 h
- concentration at 3 days [8]: ~2370 nM
- AUC(0-t) (in vivo; CSF): 36.4 ± 11.8 µM·h
- AUC(0-t) (in vivo; plasma): 3740 ± 924 µM·h
- adverse events during the study period [9]: no adverse events were observed
- ED50 (in vitro GSM activity) (γ-secretase [3]): 250 to 500 µM
- average plasma drug concentration [10]: 43 µM

Structure (SMILES): C[C@@H](C(=O)O)c1ccc(-c2ccccc2)c(F)c1 [tarenflurbil]
- clinical efficacy [11]: not to be effective
